Experimental data taken from article PMC3967244 (Clinical cancer research : an official journal of the …, 2013).
Entries after “also recorded” stand apart in the source; their conditions may differ. Read-outs that look alike come from different tables or passages of the source. Marks after values point to notes of the source that are not given here.

What was measured:
[1] = tested on: RAI avidity of tumor tissue; details: cited from earlier work
[2] = tested on: histone acetylation in PBMCs; details: day 1, 8 and 15 schedule, four hours; cited from earlier work
[3] = tested on: acetylated histone H3 in patient PBMCs; assay: Histone acetylation in peripheral blood mononuclear cells; assay type: in vivo, human
[4] = tested on: radioactive iodine uptake in refractory thyroid cancer; assay: Radiolabeled sodium iodide; assay type: in vivo, human; details: six of eleven patients with thyroid cancer
[5] = tested on: patients with solid tumors; assay: Phase I toxicity evaluation and dose escalation; details: four-hour infusion on days 1, 3 and 5 of a 21-day cycle
[6] = tested on: peripheral T-cell lymphoma (PTCL); details: two Phase II trials in PTCL; cited from earlier work
[7] = Plasma pharmacokinetics by LC/MS
[8] = tested on: ST segment and T wave changes; assay: ECG evaluation, graded ST segment and T wave changes; assay type: in vivo, human
[9] = tested on: cutaneous T-cell lymphoma (CTCL); details: two Phase II trials, 167 patients with CTCL; cited from earlier work
[10] = tested on: patients with solid tumors; details: in vivo
solid tumors = assay: Efficacy evaluation, objective disease response by RECIST v.1; assay type: in vivo, human
[11] = tested on: differentiated and anaplastic thyroid cancer cell lines; details: in vitro, cited from earlier work
[12] = 27 of 28 patients, days 1, 3, and 5 of cycle 1

C/C=C1\NC(=O)[C@H]2CSSCC/C=C/[C@H](CC(=O)N[C@H](C(C)C)C(=O)N2)OC(=O)[C@H](C(C)C)NC1=O [romidepsin, Romidepsin]
Patients with increase in RAI avidity ([1]; patients scanned following romidepsin): 2 of 16
Median increase in histone acetylation in PBMCs [2]: 3 fold
Median increase in histone acetylation over baseline ([3]; 4h time-point, 9.9 mg/m^2): 3 fold
Increase in histone acetylation in PBMCs ([3]; 4h time-point, dose of 3.3 mg/m^2 or higher): ≥ 2 fold
Accumulation in acetylation over the 5 days of treatment ([3]; days 1, 3, 5): no accumulation in acetylation
Patients with no measurable increase in AcH3 ([3]; dose level 1 or 2): Five of six
Apparent threshold dose for histone acetylation in PBMCs ([3]; fold-increase in acetylation over pre-dose levels by cohort): 3.3 mg/m^2
RAI uptake on follow-up RAI scans [4]: did not detect meaningful increases; also recorded: None demonstrated significant uptake; also recorded: did not demonstrate a significant increase in RAI uptake
Dose identified as tolerable [5]: 7 mg/m^2
ORR [6]: 25–38%
Dose dependence of CMAX and AUCLAST ([7]; 1 to 9 mg/m^2): linear pharmacokinetics
Inter-day patient variability (%CV) for AUCLAST [7, 12]: 2–59%
Inter-day patient variability (%CV) for CMAX [7, 12]: 5–68%
Clearance ([7]; all dose levels): rapid clearance
Plasma romidepsin concentration 14 hours after completing the infusion ([7]; most patients, lower limit of quantitation 2 ng/ml): below the lower limit of quantitation
Patients with Grade 2 ST and T wave changes ([8]; 24-hour timepoint, dose level 5 (7 mg/m^2) and onward): over half of patients
Grade 1 ST and T wave changes ([8]; by dose level): noted from the first dose level onward
Grade 2 ST and T wave changes ([8]; dose levels above 5 mg/m^2): observed frequently
Overall response rate (ORR) [9]: 34–35%
Patients requiring dose reduction ([10]; human): 7 of 9
Anorexia ([10]; human, 21 day): 4 # pts (%)
Grade 4 toxicities ([10]; human, 21 day): none in cycle 1
Hypocalcemia ([10]; human, 21 day): 5 (18%) # pts (%)
Nausea ([10]; human, 21 day): 3 # pts (%)
Recommended phase II dose (RP2D) ([10]; human, 21 day): 7 mg/m^2
Vomiting ([10]; human, 21 day): 2 # pts (%)
Vomiting ([10]; human, 21 days): 9 (32%) # pts (%)
Febrile neutropenia [10]: no episodes of febrile neutropenia
Grade 3 nausea and vomiting at dose level 4 [10]: not considered dose-limiting
RECIST-defined objective response (solid tumors; 28 patients with solid tumors, all dose levels): No RECIST-defined objective responses; also recorded: no patient met criteria for RECIST-defined objective response
Patients with stable disease (solid tumors; of 28 patients, minimum of six cycles (18 weeks)): nine
Range of duration of stable disease, thyroid cancer (solid tumors; six patients with thyroid cancer): 26–112 weeks
Expression of thyroglobulin and NIS ([11]; nontoxic doses for 48 – 72 hours): induced expression
Radioactive iodine uptake [11]: increased radioactive iodine uptake

O=C(CCCCCCC(=O)Nc1ccccc1)NO [vorinostat]
RAI in tumor tissue ([1]; one patient): increased
